Reference: ChEMBL document CHEMBL1201862, “PubChem BioAssay data set” (2004)
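All cell lines were grown in 96-well plates and treated with compound for 48 hours. GI50 = concentration required for 50% inhibition of growth.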 Calls of active or inactive are those of the source. No stated cut-off is given here; in the data, active = GI50 up to about 1.1 µM and inactive = higher.

Tests used:
Experiment in all cases: NCI anticancer screen, dose series, 48 h
[1] = test system: A549
[2] = test system: HCT-116
[3] = test system: IGROV-1
[4] = test system: T47D
[5] = test system: BT-549
[6] = test system: MOLT-4
[7] = test system: RXF 393
[8] = test system: CCRF-CEM
[9] = test system: K562
[10] = test system: NCI-H23
[11] = test system: ACHN
[12] = test system: CAKI-1
[13] = test system: LOX IMVI
[14] = test system: 786-0
[15] = test system: SNB-19
[16] = test system: M14
[17] = test system: UACC-62
[18] = test system: OVCAR-4
[19] = test system: TK-10
[20] = test system: SR

For `Cc1cn([C@@H]2O[C@H](CO)[C@@H](O)[C@@H]2O)c(=O)[nH]c1=O`, the GI50 [1] was > 1000 µM (inactive), the GI50 [2] was > 1000 µM (inactive) and the GI50 [3] was > 1000 µM (inactive). The GI50 [4] was > 1000 µM (inactive), the GI50 [5] was > 1000 µM (inactive) and the GI50 [6] was > 1000 µM (inactive). The GI50 [7] was > 1000 µM (inactive), the GI50 [8] was > 1000 µM (inactive) and the GI50 [9] was > 1000 µM (inactive). For the same compound, the GI50 [10] was > 1000 µM (inactive), the GI50 [11] was > 1000 µM (inactive) and the GI50 [12] was > 1000 µM (inactive). The GI50 [13] was > 1000 µM (inactive), the GI50 [14] was > 1000 µM (inactive) and the GI50 [15] was > 1000 µM (inactive). The GI50 [16] was > 1000 µM (inactive), the GI50 [17] was > 1000 µM (inactive) and the GI50 [18] was > 1000 µM (inactive). For the same compound, the GI50 [19] was > 1000 µM (inactive) and the GI50 [20] was > 1000 µM (inactive).

In the case of `CC(C)(C)OC(=O)c1ccc(NCc2cc(O)ccc2O)cc1`, the GI50 [1] was 7.4 µM (inactive), the GI50 [2] was 3.49 µM (inactive) and the GI50 [3] was 1.77 µM (inactive). For the same compound, the GI50 [4] was 1.61 µM (inactive), the GI50 [5] was 2 µM (inactive) and the GI50 [6] was 1.03 µM (active). For the same compound, the GI50 [7] was 1.36 µM (inactive), the GI50 [8] was 0.363 µM (active) and the GI50 [9] was 2.03 µM (inactive). For the same compound, the GI50 [10] was 4.93 µM (inactive), the GI50 [11] was 1.73 µM (inactive) and the GI50 [12] was 0.676 µM (active). The GI50 [13] was 3.88 µM (inactive), the GI50 [14] was 2.32 µM (inactive) and the GI50 [15] was 8.07 µM (inactive). For the same compound, the GI50 [16] was 1.94 µM (inactive), the GI50 [17] was 7.16 µM (inactive) and the GI50 [18] was 1.75 µM (inactive). For the same compound, the GI50 [19] was 2.13 µM (inactive) and the GI50 [20] was 0.916 µM (active).

`COc1cccc(/C=C/C2=NN(c3cccc(S(=O)(=O)O)c3)C3(C2)SCC(=O)N3c2nc3ccccc3s2)c1` (stereo not given) was tested, and the GI50 [1] was 60.3 µM (inactive), the GI50 [2] was 62.7 µM (inactive) and the GI50 [3] was 36.7 µM (inactive). The GI50 [4] was 16.1 µM (inactive), the GI50 [5] was 53 µM (inactive) and the GI50 [6] was 28.2 µM (inactive). The GI50 [7] was 54.8 µM (inactive), the GI50 [8] was 30.8 µM (inactive) and the GI50 [9] was 34.3 µM (inactive). For the same compound, the GI50 [10] was 86.1 µM (inactive), the GI50 [11] was 51.8 µM (inactive) and the GI50 [12] was 50.9 µM (inactive). The GI50 [13] was 21.1 µM (inactive), the GI50 [14] was 21 µM (inactive) and the GI50 [15] was 52.5 µM (inactive). The GI50 [16] was 80.9 µM (inactive), the GI50 [17] was 36 µM (inactive) and the GI50 [18] was 49.4 µM (inactive). The GI50 [19] was 28.8 µM (inactive) and the GI50 [20] was 23.9 µM (inactive).

With `Cc1cc(Cc2c(F)c(F)c(C(c3cc(C)no3)c3c(F)c(F)c(F)c(F)c3F)c(F)c2F)on1` (stereo not given) the GI50 [1] was > 100 µM (inactive), the GI50 [2] was 18.3 µM (inactive) and the GI50 [3] was > 100 µM (inactive). For the same compound, the GI50 [4] was > 100 µM (inactive), the GI50 [5] was > 100 µM (inactive) and the GI50 [6] was 17.1 µM (inactive). The GI50 [7] was 2.34 µM (inactive), the GI50 [8] was 62.7 µM (inactive) and the GI50 [9] was 9.46 µM (inactive). For the same compound, the GI50 [10] was > 100 µM (inactive), the GI50 [11] was > 100 µM (inactive) and the GI50 [12] was > 72.8 µM (inactive). The GI50 [13] was > 46.1 µM (inactive), the GI50 [14] was > 100 µM (inactive) and the GI50 [15] was > 100 µM (inactive). The GI50 [16] was 24 µM (inactive), the GI50 [17] was > 27 µM (inactive) and the GI50 [18] was > 100 µM (inactive). The GI50 [19] was > 100 µM (inactive) and the GI50 [20] was > 25.7 µM (inactive).

In the case of `CCOC(=O)C#Cc1ccc(C#CC(=O)OCC)cc1`, the GI50 [1] was 3.75 µM (inactive), the GI50 [2] was 1.7 µM (inactive) and the GI50 [3] was 1.72 µM (inactive). For the same compound, the GI50 [4] was > 21.2 µM (inactive), the GI50 [5] was 3.95 µM (inactive) and the GI50 [6] was 1.02 µM (active). The GI50 [7] was 2.62 µM (inactive), the GI50 [8] was 1.66 µM (inactive) and the GI50 [9] was 2 µM (inactive). For the same compound, the GI50 [10] was 3.69 µM (inactive), the GI50 [11] was 3.45 µM (inactive) and the GI50 [12] was 2.35 µM (inactive). The GI50 [13] was 3.03 µM (inactive), the GI50 [14] was 4.35 µM (inactive) and the GI50 [15] was 5.02 µM (inactive). For the same compound, the GI50 [16] was 2.12 µM (inactive), the GI50 [17] was 3.37 µM (inactive) and the GI50 [18] was 2.83 µM (inactive). The GI50 [19] was 2.9 µM (inactive) and the GI50 [20] was 0.604 µM (active).

`CC(C)NC(=O)OCc1c(COC(=O)NC(C)C)c(-c2ccc[n+](COC(=O)C3CCCCC3)c2)n2c1CCC2` was tested, and the GI50 [1] was 82 µM (inactive), the GI50 [2] was 56.4 µM (inactive) and the GI50 [3] was > 100 µM (inactive). For the same compound, the GI50 [4] was 57.8 µM (inactive), the GI50 [5] was 48.1 µM (inactive) and the GI50 [6] was 45.5 µM (inactive). The GI50 [7] was 38.9 µM (inactive), the GI50 [8] was > 100 µM (inactive) and the GI50 [9] was > 100 µM (inactive). For the same compound, the GI50 [10] was 28.6 µM (inactive), the GI50 [11] was 27.3 µM (inactive) and the GI50 [12] was 20.7 µM (inactive). The GI50 [13] was 31.6 µM (inactive), the GI50 [14] was 28.1 µM (inactive) and the GI50 [15] was > 100 µM (inactive). For the same compound, the GI50 [16] was 56 µM (inactive), the GI50 [17] was 24.8 µM (inactive) and the GI50 [18] was 40.6 µM (inactive). The GI50 [19] was 94.6 µM (inactive) and the GI50 [20] was > 100 µM (inactive).

With `O=C(CC1(O)C(=O)Nc2c(Cl)ccc(Cl)c21)c1ccco1` (stereo not given) the GI50 [1] was 23 µM (inactive), the GI50 [2] was 14 µM (inactive) and the GI50 [3] was 18.3 µM (inactive). For the same compound, the GI50 [4] was 35.6 µM (inactive), the GI50 [5] was 36.5 µM (inactive) and the GI50 [6] was 24.9 µM (inactive). The GI50 [7] was 19.4 µM (inactive), the GI50 [8] was 5.09 µM (inactive) and the GI50 [9] was > 10 µM (inactive). The GI50 [10] was 15.2 µM (inactive), the GI50 [11] was 20.5 µM (inactive) and the GI50 [12] was 26.1 µM (inactive). For the same compound, the GI50 [13] was 10.9 µM (inactive), the GI50 [14] was 15.5 µM (inactive) and the GI50 [15] was 42.3 µM (inactive). For the same compound, the GI50 [16] was 14.5 µM (inactive), the GI50 [17] was 13.5 µM (inactive) and the GI50 [18] was 7.06 µM (inactive). The GI50 [19] was > 53 µM (inactive) and the GI50 [20] was 4.38 µM (inactive).

In the case of `CC(C)(C)OC(=O)NCCCC(=O)NC1(c2cc3ccccc3s2)CCCCC1`, the GI50 [1] was 25.6 µM (inactive), the GI50 [2] was 14 µM (inactive) and the GI50 [3] was 18 µM (inactive). For the same compound, the GI50 [4] was 9.66 µM (inactive), the GI50 [5] was 15.1 µM (inactive) and the GI50 [6] was 14.6 µM (inactive). The GI50 [7] was 9.42 µM (inactive), the GI50 [8] was 11.4 µM (inactive) and the GI50 [9] was 19.5 µM (inactive). The GI50 [10] was 27.2 µM (inactive), the GI50 [11] was 22.8 µM (inactive) and the GI50 [12] was 22.1 µM (inactive). The GI50 [13] was 16 µM (inactive), the GI50 [14] was 16.9 µM (inactive) and the GI50 [15] was 34.8 µM (inactive). For the same compound, the GI50 [16] was 18 µM (inactive), the GI50 [17] was 10.8 µM (inactive) and the GI50 [18] was 20.5 µM (inactive). The GI50 [19] was 29 µM (inactive) and the GI50 [20] was 12.6 µM (inactive).

In the case of `CN(C(=O)Cc1cc(Cl)c(Cl)cc1NC(=O)CN)[C@H]1CCCC[C@@H]1N1CCCC1`, the GI50 [1] was 39.1 µM (inactive), the GI50 [2] was 30 µM (inactive) and the GI50 [3] was > 100 µM (inactive). For the same compound, the GI50 [4] was 25.7 µM (inactive), the GI50 [5] was 35.1 µM (inactive) and the GI50 [6] was > 100 µM (inactive). The GI50 [7] was 68.7 µM (inactive), the GI50 [8] was 27.5 µM (inactive) and the GI50 [9] was 24.7 µM (inactive). For the same compound, the GI50 [10] was > 100 µM (inactive), the GI50 [11] was 79.8 µM (inactive) and the GI50 [12] was > 100 µM (inactive). The GI50 [13] was 18.3 µM (inactive), the GI50 [14] was 16.3 µM (inactive) and the GI50 [15] was 45.8 µM (inactive). The GI50 [16] was 18.2 µM (inactive), the GI50 [17] was 16 µM (inactive) and the GI50 [18] was > 100 µM (inactive). For the same compound, the GI50 [19] was 37.9 µM (inactive) and the GI50 [20] was 29 µM (inactive).

With `CN1C(=O)[C@H](c2c[nH]c3ccccc23)[C@H](c2c[nH]c3ccccc23)C1=O` the GI50 [1] was 32.9 µM (inactive), the GI50 [2] was 25.8 µM (inactive) and the GI50 [3] was 6.97 µM (inactive). For the same compound, the GI50 [4] was 87.9 µM (inactive), the GI50 [5] was 19.1 µM (inactive) and the GI50 [6] was 21.6 µM (inactive). The GI50 [7] was 26.7 µM (inactive), the GI50 [8] was 18.6 µM (inactive) and the GI50 [9] was 28.9 µM (inactive). The GI50 [10] was 22.3 µM (inactive), the GI50 [11] was 23.8 µM (inactive) and the GI50 [12] was 2.2 µM (inactive). The GI50 [13] was 17.7 µM (inactive), the GI50 [14] was > 45.2 µM (inactive) and the GI50 [15] was 41.4 µM (inactive). The GI50 [16] was 38.8 µM (inactive), the GI50 [17] was 22.2 µM (inactive) and the GI50 [18] was 5.32 µM (inactive). The GI50 [19] was 22 µM (inactive) and the GI50 [20] was 22.6 µM (inactive).

`O=[N+]([O-])c1cc2oc(CSc3ccccc3)nc2cc1Cl` was tested, and the GI50 [1] was 36.9 µM (inactive), the GI50 [2] was 29.4 µM (inactive) and the GI50 [3] was 33.9 µM (inactive). The GI50 [4] was 24.9 µM (inactive), the GI50 [5] was 23.4 µM (inactive) and the GI50 [6] was 22.3 µM (inactive). The GI50 [7] was 26.4 µM (inactive), the GI50 [8] was 37.5 µM (inactive) and the GI50 [9] was 36.2 µM (inactive). The GI50 [10] was 26.7 µM (inactive), the GI50 [11] was 59.7 µM (inactive) and the GI50 [12] was 29 µM (inactive). For the same compound, the GI50 [13] was 35.3 µM (inactive), the GI50 [14] was 34.6 µM (inactive) and the GI50 [15] was 45.1 µM (inactive). The GI50 [16] was 32.9 µM (inactive), the GI50 [17] was 36.2 µM (inactive) and the GI50 [18] was 34.4 µM (inactive). The GI50 [19] was 35.8 µM (inactive) and the GI50 [20] was 33.3 µM (inactive).
